Reference: ChEMBL document CHEMBL1201862, “PubChem BioAssay data set” (2004)
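Exposure lasted 48 hours, with cells grown in 96-well plates and compounds tested at five concentrations. GI50: concentration for 50% inhibition of growth.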 Activity calls are given as the source filed them. No stated cut-off is given here; in the data, active = GI50 up to about 1.1 µM and inactive = higher. Where a SMILES comes first, the peptide text is derived from it. The star is where a group is joined. Boc = CC(C)(C)OC(=O)*

Columns and labels:
Assay in all cases: NCI-60 cell line screen, 48 h
[1] = test system: HT-29
[2] = test system: HCT-15
[3] = test system: MCF7
[4] = test system: COLO 205
[5] = test system: CCRF-CEM
[6] = test system: SN12C
[7] = test system: NCI/ADR-RES
[8] = test system: A549
[9] = test system: CAKI-1
[10] = test system: UACC-257
[11] = test system: SK-MEL-28
[12] = test system: NCI-H460
[13] = test system: RXF 393
[14] = test system: OVCAR-5
[15] = test system: SNB-19
[16] = test system: NCI-H23
[17] = test system: SK-MEL-5
[18] = test system: LOX IMVI
[19] = test system: SW-620
[20] = test system: ACHN

SMILES | GI50 [1] | GI50 [2] [µM] | GI50 [3] | GI50 [4] | GI50 [5] | GI50 [6] | GI50 [7] | GI50 [8] | GI50 [9] | GI50 [10] | GI50 [11] | GI50 [12] | GI50 [13] | GI50 [14] | GI50 [15] | GI50 [16] | GI50 [17] | GI50 [18] | GI50 [19] | GI50 [20]
Cc1nc2ccccc2c(=O)n1Nc1ccc(C(=O)O)cc1 | > 100 µM (inactive) | > 100 | > 100 µM (inactive) | > 100 µM (inactive) | > 100 µM (inactive) | > 100 µM (inactive) | > 100 µM (inactive) | > 100 µM (inactive) | > 100 µM (inactive) | > 100 µM (inactive) | > 100 µM (inactive) | > 100 µM (inactive) | > 100 µM (inactive) | > 100 µM (inactive) | > 100 µM (inactive) | > 100 µM (inactive) | > 100 µM (inactive) | > 100 µM (inactive) | > 100 µM (inactive) | –
c1ccc(-c2nnc(-c3nsc4ccccc34)o2)cc1 | > 100 µM (inactive) | > 100 | – | > 100 µM (inactive) | > 100 µM (inactive) | > 100 µM (inactive) | – | > 100 µM (inactive) | – | > 100 µM (inactive) | > 100 µM (inactive) | – | > 100 µM (inactive) | > 100 µM (inactive) | > 100 µM (inactive) | > 100 µM (inactive) | > 100 µM (inactive) | > 100 µM (inactive) | > 100 µM (inactive) | –
CCCN(CCC)c1cc2c(cc1F)c(=O)c(C(=O)O)cn2-c1ccc(N2CCN(C)CC2)cn1 | 14.7 µM (inactive) | 22.9 | 14.9 µM (inactive) | 13.4 µM (inactive) | 17.6 µM (inactive) | 22.5 µM (inactive) | 17.6 µM (inactive) | 16.1 µM (inactive) | 15.3 µM (inactive) | 20.2 µM (inactive) | 19.6 µM (inactive) | 17.5 µM (inactive) | 18.7 µM (inactive) | 18.8 µM (inactive) | 15.3 µM (inactive) | 16.7 µM (inactive) | – | 3 µM (inactive) | 16.2 µM (inactive) | –
CCOCNC(=O)N(COCC)COCC | > 100 µM (inactive) | > 100 | – | > 100 µM (inactive) | > 100 µM (inactive) | > 100 µM (inactive) | – | > 100 µM (inactive) | > 100 µM (inactive) | > 100 µM (inactive) | > 100 µM (inactive) | – | – | > 100 µM (inactive) | > 100 µM (inactive) | – | – | > 100 µM (inactive) | > 100 µM (inactive) | > 100 µM (inactive)
COc1ccc(-c2cc(O)c3ccc(C)nc3n2)cc1 | 81.5 µM (inactive) | > 100 | > 100 µM (inactive) | > 100 µM (inactive) | > 100 µM (inactive) | > 100 µM (inactive) | > 100 µM (inactive) | > 100 µM (inactive) | > 100 µM (inactive) | > 100 µM (inactive) | > 100 µM (inactive) | – | > 100 µM (inactive) | > 100 µM (inactive) | > 100 µM (inactive) | > 100 µM (inactive) | – | > 100 µM (inactive) | > 100 µM (inactive) | > 100 µM (inactive)
CCOC(=O)C(Cc1ccc(N=NN(C)C)cc1)NC(=O)CC1c2ccccc2-c2ccccc21 (configuration not stated) | > 100 µM (inactive) | > 100 | – | 92.7 µM (inactive) | 62.8 µM (inactive) | > 100 µM (inactive) | – | 81.7 µM (inactive) | > 100 µM (inactive) | > 100 µM (inactive) | > 100 µM (inactive) | 71.6 µM (inactive) | – | > 100 µM (inactive) | > 100 µM (inactive) | > 100 µM (inactive) | 57 µM (inactive) | 85.3 µM (inactive) | > 100 µM (inactive) | 35.6 µM (inactive)
COc1cc(O)c2c(=O)cc(C3(O)C=CC(=O)C=C3)oc2c1 | < 0.01 µM (active) | 0.0435 | – | 0.463 µM (active) | < 0.01 µM (active) | 0.135 µM (active) | 0.0588 µM (active) | – | < 0.0476 µM (active) | 0.489 µM (active) | 0.199 µM (active) | 0.675 µM (active) | 3.44 µM (inactive) | – | 6.93 µM (inactive) | 0.664 µM (active) | 0.0321 µM (active) | 0.041 µM (active) | < 0.0417 µM (active) | < 0.045 µM (active)
COC(=O)c1cccc(N[C@@H]2c3cc4c(cc3C(c3cc(OC)c(O)c(OC)c3)[C@H]3C(=O)OCC32)OCO4)c1 (some centres not stated) | 1.69 µM (inactive) | 1.08 | 0.442 µM (active) | 1.33 µM (inactive) | 0.248 µM (active) | 1.45 µM (inactive) | 0.468 µM (active) | 0.153 µM (active) | 0.321 µM (active) | 0.659 µM (active) | 2.67 µM (inactive) | 0.0351 µM (active) | 1.33 µM (inactive) | 6.67 µM (inactive) | 0.755 µM (active) | 0.63 µM (active) | 1.11 µM (active) | 0.859 µM (active) | 1.97 µM (inactive) | –
Nc1nc(O)c2ncn(C3C=CC(CO)O3)c2n1 (configuration not stated) | > 100 µM (inactive) | > 100 | 75.2 µM (inactive) | > 100 µM (inactive) | 11.1 µM (inactive) | > 100 µM (inactive) | > 100 µM (inactive) | – | > 100 µM (inactive) | > 100 µM (inactive) | > 100 µM (inactive) | > 100 µM (inactive) | > 100 µM (inactive) | > 100 µM (inactive) | > 100 µM (inactive) | > 100 µM (inactive) | > 100 µM (inactive) | > 100 µM (inactive) | > 100 µM (inactive) | –
COc1ccc(Cc2nn(C3OC(COC(C)=O)C(OC(C)=O)C(OC(C)=O)C3OC(C)=O)c(=S)n(-c3ccc(OC)cc3)c2=O)cc1 (configuration not stated) | > 100 µM (inactive) | > 100 | > 100 µM (inactive) | > 100 µM (inactive) | > 100 µM (inactive) | > 100 µM (inactive) | > 100 µM (inactive) | > 100 µM (inactive) | > 100 µM (inactive) | > 100 µM (inactive) | > 100 µM (inactive) | > 100 µM (inactive) | > 100 µM (inactive) | > 100 µM (inactive) | > 100 µM (inactive) | > 100 µM (inactive) | > 100 µM (inactive) | > 100 µM (inactive) | > 100 µM (inactive) | –
COc1cccc2c(Nc3ccc(S(=O)(=O)Nc4ncccn4)cc3)c3ccc([N+](=O)[O-])cc3nc12 | 57.4 µM (inactive) | 24.7 | 47.1 µM (inactive) | 60.7 µM (inactive) | 9.82 µM (inactive) | 92.7 µM (inactive) | – | > 100 µM (inactive) | 4.8 µM (inactive) | > 100 µM (inactive) | > 100 µM (inactive) | 27.7 µM (inactive) | 60.8 µM (inactive) | > 100 µM (inactive) | > 100 µM (inactive) | 72.1 µM (inactive) | 54.5 µM (inactive) | 30.6 µM (inactive) | 63.8 µM (inactive) | 7.06 µM (inactive)
CN1NC(c2ccc(Cl)cc2)=C(C#N)C(=O)CC1c1ccccc1 (configuration not stated) | > 100 µM (inactive) | > 100 | – | > 100 µM (inactive) | – | – | – | > 100 µM (inactive) | > 100 µM (inactive) | > 100 µM (inactive) | > 100 µM (inactive) | > 100 µM (inactive) | > 100 µM (inactive) | > 100 µM (inactive) | > 100 µM (inactive) | > 100 µM (inactive) | 72.9 µM (inactive) | > 100 µM (inactive) | > 100 µM (inactive) | > 100 µM (inactive)
NC(=O)CCC(NCc1c2ccccc2[n+]([O-])c2ccccc12)C(=O)O (configuration not stated) | > 100 µM (inactive) | 34.5 | – | > 100 µM (inactive) | 35.6 µM (inactive) | > 100 µM (inactive) | – | > 100 µM (inactive) | 82.8 µM (inactive) | > 100 µM (inactive) | > 100 µM (inactive) | > 100 µM (inactive) | – | > 100 µM (inactive) | > 100 µM (inactive) | 63 µM (inactive) | 68.7 µM (inactive) | 39.1 µM (inactive) | 52.5 µM (inactive) | 78 µM (inactive)
CC(=O)NNc1nc(C)c(C(=O)NNC(=O)C(=O)Nc2ccccc2C#N)s1 | > 100 µM (inactive) | > 100 | – | > 100 µM (inactive) | 65.9 µM (inactive) | > 100 µM (inactive) | – | > 100 µM (inactive) | > 100 µM (inactive) | > 100 µM (inactive) | > 100 µM (inactive) | > 100 µM (inactive) | > 100 µM (inactive) | > 100 µM (inactive) | > 100 µM (inactive) | > 100 µM (inactive) | > 100 µM (inactive) | > 100 µM (inactive) | > 100 µM (inactive) | > 100 µM (inactive)
CC(C)(C)OC(=O)NC(Cc1ccccc1)C(=O)N1CCCC1C(N)=O (stereo not drawn) (Boc-Phe-Pro-NH2; configuration not given here) | > 100 µM (inactive) | > 100 | > 100 µM (inactive) | > 100 µM (inactive) | > 100 µM (inactive) | – | – | > 100 µM (inactive) | 9.29 µM (inactive) | > 100 µM (inactive) | > 100 µM (inactive) | > 100 µM (inactive) | – | – | > 100 µM (inactive) | – | > 100 µM (inactive) | > 100 µM (inactive) | > 100 µM (inactive) | > 100 µM (inactive)
Cc1ccc(S(=O)(=O)OC[C@@H]2CO2)cc1 | > 100 µM (inactive) | > 100 | – | > 100 µM (inactive) | > 100 µM (inactive) | > 100 µM (inactive) | – | > 100 µM (inactive) | > 100 µM (inactive) | > 100 µM (inactive) | > 100 µM (inactive) | > 100 µM (inactive) | > 100 µM (inactive) | > 100 µM (inactive) | > 100 µM (inactive) | > 100 µM (inactive) | > 100 µM (inactive) | 99.3 µM (inactive) | > 100 µM (inactive) | > 100 µM (inactive)
